# Data from patent publication US7253191B2, “2-thio-substituted imidazole derivatives and the use thereof in the pharmaceutical industry” (Merckle GmbH, priority 2001, dated 2007).
# Assays:
# TNF-α = assay: In vitro test of cytokine release: LPS-stimulated human whole blood / PBMCs, TNFα by ELISA; assay type: cell-based; conditions: Table 1; for IC50: LPS (E.coli 026:B6) stimulation 4 hours, table does not say whole blood or PBMCs; for TNF-α, value given in %: concentration not given
# Protocol: (§1) They may be administered in one individual dose or in a plurality of doses. The activity spectrum of the compounds as inhibitors of cytokine release was examined using the test systems below, as described by C. Donat and S. Laufer in Arch. Pharm. Pharm. […] 1, 1-40, 2000.
# (§2) The reaction is stopped by placing the samples on ice, adding DPBS buffer and then centrifuging at 1000*g for 15 min. The amount of IL-1β and TNFα in the plasma supernatant is then determined by ELISA.
# (§3) The cells are washed twice with DPBS buffer, resuspended in macrophage SFM medium and adjusted to a cell count of 1*10^6 cells/ml.
# (§4) The reaction is stopped by placing the samples on ice, adding DPBS buffer and then centrifuging at 15 880*g for 12 min. The amount of IL-1β and TNFα in the plasma supernatant is then determined by ELISA.
# IL-1β = assay: In vitro test of cytokine release: LPS-stimulated human whole blood / PBMCs, IL-1β by ELISA; assay type: cell-based; conditions: Table 1; for IC50: LPS (E.coli 026:B6) stimulation 4 hours, table does not say whole blood or PBMCs
# Protocol: as §1, §2, §3, §4
Molecule,IC50 (TNF-α),IC50 (IL-1β),further results
1-Dimethylaminophenyl-4-(4-fluorophenyl)-5-(4-pyridyl)-2-thioimidazole [Example 9],15 µM,1.8 µM,–
4-(4-Fluorophenyl)-2-(4-methylsulfonyl)benzylthio-1-N-morpholinoethyl-5-(4-pyridyl)imidazole [Example 44],12 µM,1.4 µM,–
"Cn1c(S)nc(-c2ccc(F)cc2)c1-c1ccncc1 [Example 1, 4-(4-fluorophenyl)-1-methyl-5-(4-pyridyl)-2-thioimidazole]",19 µM,3.6 µM,–
"CCn1c(-c2ccncc2)c(-c2ccc(F)cc2)[nH]c1=S [Example 2, 1-Ethyl-4-(4-fluorophenyl)-5-(4-pyridyl)-2-thioimidazole]",41 µM,1.3 µM,–
"CCCn1c(-c2ccncc2)c(-c2ccc(F)cc2)[nH]c1=S [Example 3, 4-(4-Fluorophenyl)-1-n-propyl-5-(4-pyridyl)-2-thioimidazole]",32 µM,2.4 µM,–
CC(C)n1c(-c2ccncc2)c(-c2ccc(F)cc2)[nH]c1=S [Example 4],–,2.2 µM,"TNF-α, value given in % (TNF-α): 46%"
"Fc1ccc(-c2[nH]c(=S)n(C3CCCCC3)c2-c2ccncc2)cc1 [Example 5, 1-Cyclohexyl-4-(4-fluorophenyl)-5-(4-pyridyl)-2-thioimidazole]",33 µM,5.4 µM,–
"Fc1ccc(-c2[nH]c(=S)n(-c3ccccc3)c2-c2ccncc2)cc1 [Example 7, 4-(4-Fluorophenyl)-1-phenyl-5-(4-pyridyl)-2-thioimidazole]",37 µM,2.3 µM,–
"Fc1ccc(-c2[nH]c(=S)n(Cc3ccccc3)c2-c2ccncc2)cc1 [Example 8, 1-Benzyl-4-(4-fluorophenyl)-5-(4-pyridyl)-2-thioimidazole]",20 µM,1 µM,–
"Fc1ccc(-c2[nH]c(=S)n(-c3cccnc3)c2-c2ccncc2)cc1 [Example 10, 4-(4-Fluorophenyl)-1-(3-pyridyl)-5-(4-pyridyl)-2-thioimidazole]",–,8 µM,"TNF-α, value given in % (TNF-α): 42%"
"CN(C)CCn1c(-c2ccncc2)c(-c2ccc(F)cc2)[nH]c1=S [Example 11, 1-Dimethylaminoethyl-4-(4-fluorophenyl)-5-(4-pyridyl)-2-thioimidazole]",–,12 µM,"TNF-α, value given in % (TNF-α): 19%"
"CC1(C)CC(n2c(-c3ccncc3)c(-c3ccc(F)cc3)[nH]c2=S)CC(C)(C)N1 [Example 12, 4-(4-Fluorophenyl)-5-(4-pyridyl)-1-(2,2,6,6-tetramethylpiperidin-4-yl)-2-thioimidazole]",45 µM,1.6 µM,–
"Fc1ccc(-c2[nH]c(=S)n(CCCN3CCOCC3)c2-c2ccncc2)cc1 [Example 14, 4-(4-Fluorophenyl)-1-(3-N-morpholinopropyl)-5-(4-pyridyl)-2-thioimidazole]",100 µM,18 µM,–
"Fc1ccc(-c2[nH]c(=S)n(CCN3CCOCC3)c2-c2ccncc2)cc1 [Example 16, 4-(4-Fluorophenyl)-1-N-morpholinoethyl-5-(4-pyridyl)-2-thioimidazole]",–,–,"TNF-α, value given in % (TNF-α): 34%; IL-1β, value given in % (IL-1β; concentration not given): 44%"
"OCCCn1c(-c2ccncc2)c(-c2ccc(F)cc2)[nH]c1=S [Example 17, 4-(4-Fluorophenyl)-1-(3-hydroxypronyl)-5-(4-pyridyl)-2-thioimidazole]",–,7.3 µM,"TNF-α, value given in % (TNF-α): 49%"
Fc1ccc(-c2[nH]c(=S)n(C3CCN(Cc4ccccc4)CC3)c2-c2ccncc2)cc1 [Example 18],38 µM,5.8 µM,–
CSc1nc(-c2ccc(F)cc2)c(-c2ccncc2)n1C [Example 20],2.5 µM,0.45 µM,–
"CCCn1c(SC)nc(-c2ccc(F)cc2)c1-c1ccncc1 [Example 21, 4-(4-Fluorophenyl)-2-methylthio-1-n-propyl-5-(4-pyridyl)imidazole]",–,–,IC50 (TNF-α; Homo sapiens): 1.3 µM; IC50 (IL-1β; Homo sapiens): 0.36 µM
"CSc1nc(-c2ccc(F)cc2)c(-c2ccncc2)n1C1CC1 [Example 22, 1-Cyclopropyl-4-(4-fluorophenyl)-2-methylthio-5-(4-pyridyl)imidazole]",–,–,IC50 (TNF-α; Homo sapiens): 1.1 µM; IC50 (IL-1β; Homo sapiens): 0.34 µM
"CSc1nc(-c2ccc(F)cc2)c(-c2ccncc2)n1CCCN1CCOCC1 [Example 24, 4-(4-Fluorophenyl)-2-methylthio-1-N-morpholinopropyl-5-(4-pyridyl)-imidazole]",–,–,IC50 (TNF-α; Homo sapiens): 2.7 µM; IC50 (IL-1β; Homo sapiens): 1 µM

Molecule,IC50 (TNF-α),IC50 (IL-1β),further results
"CSc1nc(-c2ccc(F)cc2)c(-c2ccncc2)n1C1CC(C)(C)NC(C)(C)C1 [Example 25, 4-(4-Fluorophenyl)-2-methylthio-5-(4-pyridyl)-1-(2,2,6,6-tetramethyl-piperidin-4-yl)imidazole]",–,–,IC50 (TNF-α; Homo sapiens): 16 µM; IC50 (IL-1β; Homo sapiens): 0.85 µM
"CCn1c(SCc2ccc(S(C)(=O)=O)cc2)nc(-c2ccc(F)cc2)c1-c1ccncc1 [Example 27, 1-Ethyl-4-(4-fluorophenyl)-2-(4-methylsulfonyl)benzylthio-5-(4-pyridyl)-imidazole]",4.1 µM,0.95 µM,–
"CCCn1c(SCc2ccccc2)nc(-c2ccc(F)cc2)c1-c1ccncc1 [Example 28, 2-Benzylthio-4-(4-fluorophenyl)-1-n-propyl-5-(4-pyridyl)imidazole]",–,–,IC50 (TNF-α; Homo sapiens): 29 µM; IC50 (IL-1β; Homo sapiens): 0.65 µM
"CCCn1c(SCc2ccc(Cl)cc2)nc(-c2ccc(F)cc2)c1-c1ccncc1 [Example 29, 2-(4-Chlorobenzyl)thio-4-(4-fluorophenyl)-1-n-propyl-5-(4-pyridyl)-imidazole]",–,–,IC50 (TNF-α; Homo sapiens): 62 µM; IC50 (IL-1β; Homo sapiens): 1.3 µM
"CCCn1c(SCc2ccc(C)cc2)nc(-c2ccc(F)cc2)c1-c1ccncc1 [Example 30, 4-(4-Fluorophenyl)-2-(4-methylbenzyl)thio-1-n-propyl-5-(4-pyridyl)-imidazole]",–,–,IC50 (TNF-α; Homo sapiens): 22 µM; IC50 (IL-1β; Homo sapiens): 1.3 µM
"CCCn1c(SCc2ccc(SC)cc2)nc(-c2ccc(F)cc2)c1-c1ccncc1 [Example 31, 4-(4-Fluorophenyl)-2-(4-methylthio)benzylthio-1-n-propyl-5-(4-pyridyl)-imidazole]",–,4.7 µM,"TNF-α, value given in % (TNF-α): 35%"
"CCCn1c(SCc2ccc([S+](C)[O-])cc2)nc(-c2ccc(F)cc2)c1-c1ccncc1 (stereo not drawn) [Example 32, 4-(4-Fluorophenyl)-2-(4-methylsulfinyl)benzylthio-1-n-propyl-5-(4-pyridyl)imidazole]",24 µM,1.6 µM,–
"CCCn1c(SCc2ccc(S(C)(=O)=O)cc2)nc(-c2ccc(F)cc2)c1-c1ccncc1 [Example 33, 4-(4-Fluorophenyl)-2-(4-methylsulfonyl)benzylthio-1-n-propyl-5-(4-pyridyl)imidazole]",6.8 µM,0.72 µM,–
"CC(C)n1c(SCc2ccc(Cl)cc2)nc(-c2ccc(F)cc2)c1-c1ccncc1 [Example 34, 2-(4-Chlorobenzyl)thio-4-(4-fluorophenyl)-1-isopropyl-5-(4-pyridyl)-imidazole]",–,–,IC50 (TNF-α; Homo sapiens): 53 µM; IC50 (IL-1β; Homo sapiens): 5.3 µM
"CC(C)n1c(SCc2ccc(S(C)(=O)=O)cc2)nc(-c2ccc(F)cc2)c1-c1ccncc1 [Example 35, 4-(4-Fluorophenyl)-2-(4-methylsulfonyl)benzylthio-1-isopropyl-5-(4-pyridyl)imidazole]",2.7 µM,1.5 µM,–
"CS(=O)(=O)c1ccc(CSc2nc(-c3ccc(F)cc3)c(-c3ccncc3)n2C2CCCCC2)cc1 [Example 39, 1-Cyclohexyl-4-(4-fluorophenyl)-2-(4-methylsulfonyl)benzylthio-5-(4-pyridyl)imidazole]",13 µM,1.8 µM,–
"CS(=O)(=O)c1ccc(CSc2nc(-c3ccc(F)cc3)c(-c3ccncc3)n2-c2ccccc2)cc1 [Example 40, 4-(4-Fluorophenyl)-2-(4-methylsulfonyl)benzylthio-1-phenyl-5-(4-pyridyl)imidazole]",3.4 µM,1.3 µM,–
"CS(=O)(=O)c1ccc(CSc2nc(-c3ccc(F)cc3)c(-c3ccncc3)n2Cc2ccccc2)cc1 [Example 41, 1-Benzyl-4-(4-fluorophenyl)-2-(4-methylsulfonyl)benzylthio-5-(4-pyridyl)-imidazole]",1 µM,0.36 µM,–
"Fc1ccc(-c2nc(SCc3ccccc3)n(CCN3CCOCC3)c2-c2ccncc2)cc1 [Example 42, 2-Benzylthio-4-(4-fluorophenyl)-1-N-morpholinoethyl-5-(4-pyridyl)-imidazole]",–,–,IC50 (TNF-α; Homo sapiens): 11 µM; IC50 (IL-1β; Homo sapiens): 1.3 µM
Fc1ccc(-c2nc(SCc3ccccc3)n(CCCN3CCOCC3)c2-c2ccncc2)cc1 [Example 43],5.4 µM,0.89 µM,–
"C[S+]([O-])c1ccc(CSc2nc(-c3ccc(F)cc3)c(-c3ccncc3)n2CCN2CCOCC2)cc1 (stereo not drawn) [Example 45, 4-(4-Fluorophenyl)-2-(4-methylsulfinyl)benzylthio-1-N-morpholinoethyl-5-(4-pyridyl)imidazole]",12 µM,2.4 µM,–
"CC1(C)CC(n2cc(-c3ccc(F)cc3)nc2SCc2ccccc2)CC(C)(C)N1 [Example 46, 2-Benzylthio-4-(4-fluorophenyl)-1-(2,2,6,6-tetramethylpiperidin-4-yl)-imidazole]",–,–,IC50 (TNF-α; Homo sapiens): 12 µM; IC50 (IL-1β; Homo sapiens): 0.87 µM
Cn1c(SCCN2CCOCC2)nc(-c2ccc(F)cc2)c1-c1ccncc1 [Example 47],28 µM,1.7 µM,–
"Cn1c(S/C=C\c2ccccc2)nc(-c2ccc(F)cc2)c1-c1ccncc1 [Example 48, 1-cis-Phenylethenylthio-4-(4-fluorophenyl)-1-methyl-5-(4-pyridyl)-imidazole]",–,–,IC50 (TNF-α; Homo sapiens): 22 µM; IC50 (IL-1β; Homo sapiens): 1.7 µM
